Test results taken from CN107475146A, “一种链霉菌及其代谢产物粉蝶霉素类化合物在抗肾癌中的应用” (priority 2017, dated 2017).

What was measured:
Format in all cases: cell-based
[1] = test system: ACHN human renal cancer cell line [ACHN人肾癌细胞株]; assay: CCK-8 assay, inhibition of proliferation of ACHN human renal cancer cells; details: 72 h
[2] = test system: OS-RC-2 human renal cancer cell line [OS-RC-2人肾癌细胞株]; assay: CCK-8 assay, inhibition of proliferation of OS-RC-2 human renal cancer cells; details: for IC50: CCK-8, 72 h
[3] = test system: 786-O and ACHN cells [786-O和ACHN细胞]; assay: CCK-8 assay, 786-O and ACHN human renal cancer cells, result stated jointly for both lines
[4] = test system: 786-O human renal cancer cell line [786-O人肾癌细胞株]; assay: CCK-8 assay, inhibition of proliferation of 786-O human renal cancer cells

## CC=C(C)C(O)C(C)C=C(C)C=CCC(C)=CCc1nc(OC)c(OC)c(O)c1C (centres unmarked) [化合物1, Piericidin A]
[1]; Homo sapiens
  IC50: 0.4 µM
[2]; Homo sapiens
  IC50: 5.16 µM
[3]; Homo sapiens, joint range over compounds 1, 2, 4 and 5, CCK-8, 72 h
  IC50: 0.4 to 72 µM
[4]; Homo sapiens, 786-0, 72 h
  IC50: 29.9 µM

## IT-143-B [化合物5]
[2]
  IC50: 42.1 µM
[4]; 72 h
  IC50: 72 µM

## IT-143-A [compound 4]
[2]
  IC50: 20.5 µM
[4]; 72 h
  IC50: 61.1 µM

## Piericidin C2 [化合物3]
[2]
  IC50: 22.4 µM
[4]; 72 h
  IC50: > 100 µM

## Piericidin A2 [化合物2]
[1]
  IC50: 14.2 µM
[2]
  IC50: 16.4 µM
[4]; 72 h
  IC50: 50.3 µM

## Piericidin s3a [化合物6]
[2]
  IC50: 30.9 µM
[2]; in words
  inhibitory activity: 具有抑制活性
[3]; in words
  selectivity: 具有一定的选择性
[4]; 72 h
  IC50: > 100 µM
